{"source": "patent US20220056075A1", "about": "“METHOD FOR TREATING OPIOID USE DISORDER” (THE ADMINISTRATORS OF THE TULANE EDUCATIONAL FUND, priority 2019, published 2022)", "key": {"[1]": {"system": "rats trained to discriminate morphine from vehicle", "assay": "Drug discrimination (DD), morphine-trained rats", "settings": "for Response rate impairment %: highest dose tested (5.6 mg/Kg), percent of vehicle responding", "description": "Drug Discrimination (DD): Rats were food deprived to approximately 85% of the weight of free feeding cohorts to establish operant responding for 45 mg food pellets (Bioserve, Frenchtown, N.J.) in standard operant chambers (MED Associates, St. Albans, Vt.). Rats were fed 10-20 g of standard food after daily DD sessions, and ˜3× the daily amount on weekends to maintain appropriate weight. DD consisted of 3 phases (Krivsky et al., 2006). In phase 1, rats were trained to lever press for food at a fixed ratio (FR) level 1 (i.e., 1 lever press=1 food pellet) using 2 levers with stimulus lights located above each lever and a food hopper between the levers during 120 min sessions. Responding on either lever extinguished the light and delivered a food pellet. […] Once >20 pellets were earned at FR9, sessions were shortened to 20 min and response requirements were set at FR10 and the left or right lever reinforced responding on alternate days. Once >20 pellets were earned on each lever at FR10, rats started phase 2 of DD training.\nOnly responses on the correct lever were reinforced and responses on the incorrect lever reset the response requirement on the correct lever. Criteria to move to phase 3 were as follows: >20 pellets per session, >90% injection appropriate lever responding, and <9 responses on the incorrect lever before the first food pellet reward.\nTwo paradigms were utilized to generate substitution curves: cumulative within-session and bolus between-session injections.\nDuring substitution tests, both levers actively delivered food at an FR10 schedule. […] Doses were increased in ¼ log increments, with injections every 20 min followed 15 minutes later by DD sessions lasting 5 min each. […] The advantage of this procedure was that an entire dose-response was generated in one session.\nStatistics: PRISM software (GraphPad, San Diego, Calif.) was used for one-way analysis of variance (ANOVA) with Newman-Keuls post-hoc comparisons to compare CPP groups, locomotor effects, hot plate, and DD response rates. Locomotor data recorded during the conditioning sessions were analyzed by 2-way ANOVA (session x drug) and data from the first session were subtracted from the final session to assess locomotor enhancement. Experimenters were blinded to treatment groups."}, "[2]": {"system": "Male Sprague Dawley rats", "assay": "Locomotor sensitization during CPP conditioning sessions", "format": "in vivo, rat", "settings": "1.8, 3.2, 5.6 mg/Kg i.v., 5 daily injections, compared to vehicle", "description": "Conditioned Place Preference (CPP) and locomotor activity: Standard CPP chambers (TSE; Chesterfield, Mo.) were used to measure baseline activity and conditioning trials. Baseline activity was measured over 2 days with 4 trials per day (2 in the AM, and 2 in the PM) lasting 20 min each. […] Conditioning trials were conducted for 5 days and tested in an unbiased manner such that drug/environment pairings were counterbalanced for time of drug injection (AM or PM) and compartment (preferred or non-preferred) based on baseline activity. […] This indicates a lack of carry-over effects of drug between sessions. One day following the last conditioning trial, a 20 min test trial was conducted in the same manner as baseline trials in which rats were free to explore both compartments. Change in time spent exploring the drug-paired compartment (test-baseline) was used to indicate preference (or aversion) to the compartment. Approximately 20 min following the final session, rats were perfused and brain samples were taken for immunohistochemical analysis (below). Locomotor activity was assessed by infrared light beams located in the conditioning compartments and the start box. […] Data were recorded in meters and an assessment of locomotor sensitization was made by subtracting the first session from the final session.\nExperimenters were blinded to treatment groups."}}, "note": "“And” between values parts separate entries of the source, which are not always exact repeats. Equal values may be shown once. “Also recorded” adds a separate entry of the source."}
{"smiles": "NC(=O)CNC(=O)[C@@H]1CCC(=O)NCCCC[C@@H](NC(=O)[C@@H](N)Cc2ccc(O)cc2)C(=O)N[C@@H](Cc2c[nH]c3ccccc23)C(=O)N[C@@H](Cc2ccccc2)C(=O)N1", "note": "[ZH853, Tyr-c[D-Lys-Trp-Phe-Glu]-Gly-NH2]", "values": [{"measurement": "Response rate impairment %", "setting": "[1]; bolus injections", "result": "15% and 15.1%"}, {"measurement": "Response rate impairment %", "setting": "[1]; cumulative injections", "result": 0.8, "unit": "%"}, {"measurement": "response rates for food during test sessions", "setting": "[1]; i.v., compared to vehicle", "result": "not impaired; also recorded: lowest among all compounds tested"}, {"measurement": "locomotor sensitization (LS), day 5 minus day 1", "setting": "[2]", "result": "did not produce LS at any dose tested"}]}
